For assay [1] the following is noted: cited from earlier work.
For assay [2] the following is noted: literature, cited from earlier work.
For assay [3] the following is noted: literature, Wilson et al.; cited from earlier work.
For assay [4] the following is noted: p.o.; U.S. Pat. No. 3,507,885 compound; cited from earlier work.
Assay [5] in a line: hot-plate test using rats (analgesic activity). In kind it is in vivo. The note with it: for analgesic activity: suspended with 1% methyl cellulose. (In general: In hot-plate and tail-flick tests a longer latency is read as antinociception.)
Assay [6] can be described thus: narcosis potentiating activity (35 mg/kg of phenobarbital in rats). In kind it is in vivo. The settings on record: i.v.; narcosis time of 35 mg/kg of phenobarbital in rats lengthened by ten times (route printed for CKN-30 complex and morphine). How it is done:
The narcosis time of 35 mg/kg of phenobarbital in rats is lengthened by ten times by using 0.1-0.25 mg/kg i.v. CKN-30 complex or 0.05 mg/kg of CKN-49 complex. In order to achieve similar activity more than 1 mg/kg of i.v. morphine was needed.

Setting [7] is: Wilson et al., J. Med. Chem. 19, 1165 (1976).

Counter-ions that a name gives are not always drawn. Like-named read-outs stand apart in the source and are kept apart here.

The term ED50 denotes the midpoint of the dose-response relation. Lower therefore signals greater potency.

As to `CCCCCc1cc(O)c2c(c1)OC(C)(C)C1CCC(O)CC21` (stereo not shown), in assay [1] (literature, B. R. Martin et al. (1977), levorotatory form), the “ED50 (tail-flick)” value was 1.71 mg/kg. For the same compound, the “ED50 (hot plate)” value in assay [2] (setting [7]) is listed as 1.6 mg/kg.

Consider `CCCCCc1cc(O)c2c(c1)OC(C)(C)[C@@H]1CC[C@@H](O)C[C@@H]21` (relative stereo) [9-nor-9β-hydroxy-hexahydrocannabinol], for which, in assay [3], the analgesic strength result is “as strong as morphine”. Also, the “ED50 (hot plate)” value in assay [2] (setting [7]) is 2.9 mg/kg; in assay [2] (aqueous suspension containing Emulphor emulsifying agent and ethanol) it was 2.9 mg/kg.

Regarding `CCCCCCC(C)(C)c1cc(O)c2c(c1)OC(C)(C)[C@@H]1CC[C@@H](O)C[C@@H]21` (relative stereo) [(±)-1,9β-dihydroxy-6,6-dimethyl-3-(1,1-dimethyl-1-heptyl)-6aβ,7,8,9,10,10aα-hexahydro-6H-dibenzo(bd)-pyrane], in assay [4], the “ED50 (mouse writhing)” value was 1.25 mg/kg. In assay [1] (p.o., U.S. Pat. No. 3,507,885 compound), the “ED50 (tail-flick)” value was 0.1 to 5 mg/kg.

Take `COCCCC(C)c1cc(O)c2c(c1)OC(C)(C)[C@@H]1CC[C@@H](O)C[C@@H]21` (relative stereo) [CKN-30, (±)-1,9β-dihydroxy-6aβ,7,8,9,10,10aα-hexahydro-6,6-dimethyl-3-[(2RS)-5-methoxy-2-pentyl]-6H-dibenzo[bd]pyrane]: the analgesic activity result in assay [5] is given as “moderate analgesic activity”.

For the compound `CCOCCCC(C)c1cc(O)c2c(c1)OC(C)(C)[C@@H]1CC[C@@H](O)C[C@@H]21` (relative stereo) [CKN-49, (±)-1,9β-dihydroxy-6aβ,7,8,9,10,10aα-hexahydro-6,6-dimethyl-3-[(2RS)-5-ethoxy-2-pentyl]-6H-dibenzo[bd]pyrane], the analgesic activity entry in assay [5] was “moderate analgesic activity”.

As for `CN1CC[C@]23c4c5ccc(O)c4O[C@H]2[C@@H](O)C=C[C@H]3[C@H]1C5` [morphine. HCl], the “ED50 (hot plate)” value in assay [2] (setting [7]) is reported as 1.2 mg/kg.

As to `CN1CC[C@]23c4c5ccc(O)c4O[C@H]2[C@@H](O)C=C[C@H]3[C@H]1C5` [morphine], the ED50 is reported as 3.6 mg/kg in assay [5] (i.v.) and 4.6 mg/kg in assay [5] (s.c.). The “dose lengthening the narcosis time by ten times” value in assay [6] is given as “more than 1 mg/kg”.

These data come from patent US4599327A, “Dibenzo[bd]pyran derivatives, process for the preparation thereof and pharmaceutical compositions containing same” (priority 1982, dated 1986).
